Data from US11427590B2, “Small molecule inhibitors of neutral sphingomyelinase 2 (nSMase2) for the treatment of neurodegenerative diseases” (The Johns Hopkins University, priority 2017, dated 2022).

Experiments:
rat astrocytes = experiment: Inhibition of exosome release from primary astrocytes in vitro; format: cell-based; details: 0.3-10 μM, 2 h after treatment, vs DMSO (0.02%)
Procedure: The effect of nSMase2 inhibitors on the manufacturing and release of ceramide rich exosomes from primary astrocytes was investigated as previously described. Dickens, et al. Briefly, rat astrocytes are seeded onto 6-well plates at a density of 20,000 cells/well. Twenty-four hours after seeding, astrocytes are washed with PBS and the medium changed to media without FBS. Absence of FBS mimics a trophic factor withdrawal stimulus causing the release of exosomes via a nSMase2-dependent pathway. Astrocytes are then treated with nSMase2 inhibitors at concentrations in the range 0.03-30 μM. DMSO (0.02%) is used as control. Two hours after treatment, media is collected and centrifuged at 2700 g for 15 min (4° C.). Supernatant is further centrifuged at 10,000 g for 15 min (4° C.) to remove large particles such as apoptotic bodies. Astrocyte-derived extracellular vesicles (EVs) are isolated via ultracentrifugation at 100,000 g for 3 h at 4° C. Fractions containing EV are washed twice with 5 ml PBS and the final pellet resuspended in PBS. This isolation procedure results in the isolation of EVs with a narrow size range and protein markers consistent with exosomes. Dickens, et al. The number of EVs is quantified using ZetaView Nanoparticle Tracker (Particle Metrix GmBH, Meerbusch, Germany) and the corresponding ZetaVeiw software (8.03.04.01). Nanosphere size standard 100 nm (Thermo Scientific) is used to calibrate the instrument prior to sample readings. For each sample 1 mL of the supernatant is injected into the sample-carrier cell and the particle count measured at 5 positions, with 2 cycles of reading per position. Cells are washed with PBS after every sample. Mean concentration of EVs/mL (±SEM) is calculated from 6 replicates. This screening assay is reliable with a Z′=0.75.
Referring now to FIG. 4A and FIG. 4B, the ability of compound 38 and several of its analogs to inhibit exosome release in vitro was evaluated as previously described. […] Two hours after treatment, exosomes were isolated from the media and quantified using ZetaView Nanoparticle Tracker. The mean concentration of exosomes (EVs/mL±SEM) was calculated from 6 replicate experiments (see FIG. 4). […] Baseline exosome release can be variable between experiments; as a result, inhibition is always compared relative to vehicle treatment within the same experiment. Structures of compounds with their corresponding IC50s are provided in the second row of FIG. 4.

[1] = Phase I metabolic stability in mouse liver microsomes; format: in vitro ADME; details: 37° C.
Procedure: (§1) Phase I metabolic stability in both mouse and human liver microsomes was performed as described previously. Rais et al. Briefly, compounds are spiked in liver microsomes (mouse, human) and incubated in an orbital shaker at 37° C. […] Compound disappearance is monitored over time using LC/MS/MS.

[2] = Phase I metabolic stability in human liver microsomes; format: in vitro ADME; details: 37° C.
Procedure: as §1

Mouse Liver Microsome (+) NADPH % Remaining at 60 min [1]: 53 ± 6%
Human Liver Microsome (+) NADPH Remaining at 60 min [2]: 28 ± 5%
SMILES: COc1ccc(-c2c(-c3ccc(C)cc3)nc3c(N4CC[C@@H](NC(C)=O)C4)cc(C)nn23)cc1OC [compound 62, (R)—N-(1-(3-(3,4-dimethoxyphenyl)-6-methyl-2-(p-tolyl)imidazo[1,2-b]pyridazin-8-yl)pyrrolidin-3-yl)acetamide]
exosome release from astrocytes (rat astrocytes): decreased the number of exosomes released from astrocytes in a dose dependent manner
